Read-outs that look alike come from different tables or passages of the source.
How the values were obtained:
in vitro = settings: human
mutant H = experiment: Antiviral spectrum, fold resistance towards mutant H; type: cell-based; settings: FR=IC50(mutant strain)/IC50(HIV-1 strain LAI)
mutant F = experiment: Antiviral spectrum, fold resistance towards mutant F; type: cell-based; settings: FR=IC50(mutant strain)/IC50(HIV-1 strain LAI)
Method: (§1) Because of the increasing emergence of drug resistant HIV strains, the present compounds were tested for their potency against clinically isolated HIV strains harboring several mutations. These mutations are associated with resistance to protease inhibitors and result in viruses that show various degrees of phenotypic cross-resistance to the currently commercially available drugs such as for instance saquinavir, ritonavir, nelfinavir, indinavir and amprenavir. The viral strains R13025, R13027, R13028, R13029, R13034, R13080, T13127 and R13363 contained mutations as indicated below in Table 3.

mutant C = experiment: Antiviral spectrum, fold resistance towards mutant C; type: cell-based; settings: FR=IC50(mutant strain)/IC50(HIV-1 strain LAI)
Method: as §1

mutant E = type: cell-based; settings: FR=IC50(mutant strain)/IC50(HIV-1 strain LAI)
mutant A = type: cell-based; settings: FR=IC50(mutant strain)/IC50(HIV-1 strain LAI)
mutant D = experiment: Antiviral spectrum, fold resistance towards mutant D; type: cell-based; settings: FR=IC50(mutant strain)/IC50(HIV-1 strain LAI)
Method: as §1

HIV-1 strain LAI = experiment: Cellular anti-HIV assay, MT4 cells, MTT readout, wild type HIV-1 strain LAI; type: cell-based
Method: The compounds of the present invention were examined for anti-viral activity in a cellular assay. […] The cellular assay was performed according to the following procedure.

mutant B = experiment: Antiviral spectrum, fold resistance towards mutant B; type: cell-based; settings: FR=IC50(mutant strain)/IC50(HIV-1 strain LAI)
Method: as §1

mutant G = experiment: Antiviral spectrum, fold resistance towards mutant G; type: cell-based; settings: FR=IC50(mutant strain)/IC50(HIV-1 strain LAI)
Method: as §1

In the case of `CC(C)CN(C[C@@H](O)[C@H](Cc1ccccc1)NC(=O)O[C@H]1CO[C@H]2OCC[C@H]21)S(=O)(=O)c1ccc2ncn(Cc3ccccc3)c2c1` [Compound 1, [(1S,2R)-2-hydroxy-3-[(2-methylpropyl)[[1-(phenylmethyl)benzimidazol-6-yl]sulfonyl]amino]-1-(phenylmethyl)-propyl]carbamic acid, [(3R,3aS,6aR)-hexahydrofuro[2,3-b]furan-3-yl]ester], the CC50 at 5 days (in vitro) is reported as 63100 nM, the “FR towards mutant H” value (mutant H) is reported as 33 and the “FR towards mutant F” value (mutant F) is reported as 40. For the same compound, the “FR towards mutant C” value (mutant C) was 1.1, the “FR towards mutant E” value (mutant E) was 1.6 and the “FR value towards mutant A” value (mutant A) was 9.3. For the same compound, the “FR towards mutant D” value (mutant D) was 1.5, the IC50 (HIV-1 strain LAI; Human immunodeficiency virus 1, 120 h, Table 1, MT4 cells, five days, HIV-1 strain LAI, read-out: pIC50 (LAI) (converted)) was 0.794 nM and the IC50 (HIV-1 strain LAI; Human immunodeficiency virus 1, MT4, Table 4, wild type HIV-LAI strain, read-out: WT (pIC50 against wild type HIV-LAI strain) (converted)) was 0.794 nM. For the same compound, the “FR towards mutant B” value (mutant B) was 3.1 and the “FR towards mutant G” value (mutant G) was 275.

From US8143421B2, “Broadspectrum substituted benzimidazole sulfonamide HIV protease inhibitors” (priority 2002, dated 2012)
